According to patent publication US8778919B2, “Cyclic anilino—pyridinotriazines” (Janssen Pharmaceutica NV, priority 2005, dated 2014):

Assays:
GSK-3α = GSK-3α (Homo sapiens, UniProt P49840); assay: GSK-3 kinase assay (C1), GSK-3α; assay type: biochemical; details: 1 μM ATP, read-out: C1 Score α
Method in brief: (§1)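 Radiometric SPA at room temperature in 25 mM Tris pH 7.4 with 10 mM MgCl2, 1 mM DTT, 5.7 ng/μl GSK-3β or 0.25 ng/μl GSK-3α, 5 μM biotinylated CREB peptide and 1 μM ATP plus ^33P-ATP. Stopped after 1 h; IC50 from dose-response versus no-compound control, reported as pIC50 score bands.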

GSK-3β = GSK-3β (Homo sapiens, UniProt P49841); assay: GSK-3 kinase assay (C1), GSK-3β; assay type: biochemical; details: 1 μM ATP, read-out: C1 Score β
GSK-3β, sequence (P49841 whole entry, species assumed): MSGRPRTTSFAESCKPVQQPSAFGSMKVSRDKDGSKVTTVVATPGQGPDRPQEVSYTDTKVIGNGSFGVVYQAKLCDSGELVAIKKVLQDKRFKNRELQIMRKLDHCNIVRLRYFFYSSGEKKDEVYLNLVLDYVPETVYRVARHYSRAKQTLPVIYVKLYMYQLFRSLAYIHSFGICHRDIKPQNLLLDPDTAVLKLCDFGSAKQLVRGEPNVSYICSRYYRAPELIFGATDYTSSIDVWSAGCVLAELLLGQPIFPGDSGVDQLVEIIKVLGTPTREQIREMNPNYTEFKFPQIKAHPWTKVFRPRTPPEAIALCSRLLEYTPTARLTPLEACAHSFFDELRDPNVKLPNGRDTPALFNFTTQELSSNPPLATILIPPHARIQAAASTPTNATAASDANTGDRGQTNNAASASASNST
Method in brief: as §1

Chang cells = assay: GSK-3 cellular assay (C2): 14C-D-glucose incorporation into glycogen; assay type: cell-based; details: increase in D-glucose incorporation into glycogen, test concentration of 10^−6 M
Protocol: Test compounds were tested for their ability to increase the incorporation of ^14C-D-glucose into glycogen in living cells. To do this, Chang cells (360,000 cells/well) were cultured in 0.5 ml of MEM Rega 3 medium supplemented with 10% fetal calf serum, 1% L-glutamine and 2% sodium carbonate. After 3 days, cells were washed with 0.5 ml of phosphate-buffered saline and overlayed with 1 ml of serum- and glucose-free DMEM medium. Then, 2 μl of compound in DMSO and 50 μl substrate (3 mM glucose and 0.5 μCi ^14C-D-glucose were added and the cultures were incubated for 90 min. Cells were then extracted with 0.5 ml of 20% KOH for 60 min at 37° C. and the cell lysates were transferred to 10 ml tubes containing 300 μl of 1 mg/ml glycogen as […]. Following the addition of 2 ml ethanol, total glycogen was precipitated overnight at −20° C. and the precipitates were recovered by centrifugation. Precipitates were then resuspended in 1 ml of water and transferred to scintillation counter vials. and the amount of ^14C-D-glucose incorporation into glycogen was measured by scintillation counting. Scores for the compounds according to the invention, were obtained at a test concentration of 10^−6 M. Score 1=10-30% increase, Score 2=30-60% increase, Score 3=60-80% increase and Score 4=>80% increase in D-glucose incorporation.

CDK1/cyclinB (h) = CDK1/cyclinB (h) (Homo sapiens, UniProt P06493); assay: Kinase profiling C3.2 CDK1/cyclinB human; assay type: biochemical; details: test concentration of 10^−6 M
CDK1/cyclinB (h), sequence (P06493 whole entry): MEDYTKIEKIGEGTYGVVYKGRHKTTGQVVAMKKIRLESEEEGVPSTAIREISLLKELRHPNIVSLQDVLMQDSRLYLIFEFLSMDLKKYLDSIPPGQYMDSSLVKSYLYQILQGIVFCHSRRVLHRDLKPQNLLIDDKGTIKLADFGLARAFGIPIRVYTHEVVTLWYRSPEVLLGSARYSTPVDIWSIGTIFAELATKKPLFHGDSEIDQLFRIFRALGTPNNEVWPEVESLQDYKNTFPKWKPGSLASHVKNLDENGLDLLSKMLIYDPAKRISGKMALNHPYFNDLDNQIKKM
CDK1/cyclinB (h), sequence (P14635 whole entry partner): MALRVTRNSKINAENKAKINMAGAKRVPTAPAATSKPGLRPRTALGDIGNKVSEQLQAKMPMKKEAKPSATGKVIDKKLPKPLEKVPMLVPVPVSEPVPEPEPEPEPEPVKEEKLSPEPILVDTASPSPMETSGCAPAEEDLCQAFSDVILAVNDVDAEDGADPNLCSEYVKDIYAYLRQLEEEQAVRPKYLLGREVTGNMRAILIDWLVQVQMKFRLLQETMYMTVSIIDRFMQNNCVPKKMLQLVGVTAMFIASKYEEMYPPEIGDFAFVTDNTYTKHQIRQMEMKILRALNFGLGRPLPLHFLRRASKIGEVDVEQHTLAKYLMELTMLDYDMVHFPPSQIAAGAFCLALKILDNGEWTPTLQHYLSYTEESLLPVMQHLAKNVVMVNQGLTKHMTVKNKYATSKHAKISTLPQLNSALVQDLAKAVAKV
Protocol: (§2) The in vitro inhibition of a panel of kinases was assessed using either the glass-fiber filter technology as described by Davies, S. P. et al., Biochem J. (2000), 351; p. 95-105. In the glass-fiber filter technology the activity of the kinase of interest is measured using an appropriate substrate that is incubated with the aforementioned kinase protein in the presence of (^33P) radiolabeled ATP. (^33P) Phosporylation of the substrate is subsequently measured as radioactivity bound on a glassfiber-filter.
(§3) All kinases are pre-diluted to a 10× working concentration prior to addition into the assay. The composition of the dilution buffer for each kinase is detailed below.
(§4) All substrates are dissolved and diluted to working stocks in de-ionised water, apart from histone H1 that is stored in 10× working stock in 20 mM MOPS pH 7.4.
(§5) In a final reaction volume of 25 μl, CDK1/cyclinB (h) (5-10 mU) is incubated with 8 mM MOPS pH 7.0, 0.2 mM EDTA, 0.1 mg/ml histone H1, 10 mM MgAcetate and [γ-^33P-ATP] (specific activity approx. 500 cpm/pmol, concentration as required). The reaction is initiated by the addition of the MgATP mix. After incubation for 40 minutes at room temperature, the reaction is stopped by the addition of 5 μl of a 3% phosphoric acid solution. 10 μl of the reaction is then spotted onto a P30 filtermat and washed three times for 5 minutes in 75 mM phosphoric acid and once in methanol prior to drying and scintillation counting.

CDK2/cyclinA (h) = CDK2/cyclinA (h) (Homo sapiens, UniProt P24941); assay: Kinase profiling C3.3 CDK2/cyclinA human; assay type: biochemical; details: test concentration of 10^−6 M
Protocol: as §2, §3, §4
as §5, with “CDK2/cyclinA” for “CDK1/cyclinB”

CDK2/cyclinE (h) = CDK2/cyclinE (h) (Homo sapiens, UniProt P24941); assay: Kinase profiling C3.4 CDK2/cyclinE human; assay type: biochemical; details: test concentration of 10^−6 M
Protocol: as §2, §3, §4
as §5, with “CDK2/cyclinE” for “CDK1/cyclinB”

CDK3/cyclinE (h) = CDK3/cyclinE (h) (Homo sapiens, UniProt Q00526); assay: Kinase profiling C3.5 CDK3/cyclinE human; assay type: biochemical; details: test concentration of 10^−6 M
Protocol: as §2, §3, §4
as §5, with “CDK3/cyclinE” for “CDK1/cyclinB”

CDK5/p35 human = CDK5/p35 human (Homo sapiens, UniProt Q00535); assay: Kinase profiling C3.6 CDK5/p35 human; assay type: biochemical; details: CDK5/p35, test concentration of 10^−6 M
CDK5/p35 human, sequence (Q00535 whole entry): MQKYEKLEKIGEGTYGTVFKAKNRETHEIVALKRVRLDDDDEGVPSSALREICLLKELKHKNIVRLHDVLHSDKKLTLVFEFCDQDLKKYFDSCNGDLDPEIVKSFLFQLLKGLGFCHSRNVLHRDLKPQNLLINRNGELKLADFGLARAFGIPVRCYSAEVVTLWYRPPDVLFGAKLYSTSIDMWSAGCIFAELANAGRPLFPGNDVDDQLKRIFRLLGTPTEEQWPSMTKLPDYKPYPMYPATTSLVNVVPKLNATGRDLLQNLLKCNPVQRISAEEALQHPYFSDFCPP
CDK5/p35 human, sequence (Q15078 whole entry partner): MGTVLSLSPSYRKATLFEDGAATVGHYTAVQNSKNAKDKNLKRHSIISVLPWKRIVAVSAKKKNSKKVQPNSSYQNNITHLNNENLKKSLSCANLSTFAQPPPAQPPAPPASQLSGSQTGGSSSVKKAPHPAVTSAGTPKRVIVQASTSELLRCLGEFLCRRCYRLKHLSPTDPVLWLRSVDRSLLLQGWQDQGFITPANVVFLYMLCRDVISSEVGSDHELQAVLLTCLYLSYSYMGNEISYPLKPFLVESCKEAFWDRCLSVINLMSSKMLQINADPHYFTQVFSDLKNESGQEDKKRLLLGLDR
Protocol: as §2, §3, §4
as §5, with “CDK5/p35 human” for “CDK1/cyclinB (h)”

CDK7/cyclinH/MAT1 (h) = CDK7/cyclinH/MAT1 (h) (Homo sapiens, UniProt P50613); assay: Kinase profiling C3.8 CDK7/cyclinH/MAT1 human; assay type: biochemical; details: CDK7/cyclinH/MAT1, test concentration of 10^−6 M
CDK7/cyclinH/MAT1 (h), sequence (P50613 whole entry): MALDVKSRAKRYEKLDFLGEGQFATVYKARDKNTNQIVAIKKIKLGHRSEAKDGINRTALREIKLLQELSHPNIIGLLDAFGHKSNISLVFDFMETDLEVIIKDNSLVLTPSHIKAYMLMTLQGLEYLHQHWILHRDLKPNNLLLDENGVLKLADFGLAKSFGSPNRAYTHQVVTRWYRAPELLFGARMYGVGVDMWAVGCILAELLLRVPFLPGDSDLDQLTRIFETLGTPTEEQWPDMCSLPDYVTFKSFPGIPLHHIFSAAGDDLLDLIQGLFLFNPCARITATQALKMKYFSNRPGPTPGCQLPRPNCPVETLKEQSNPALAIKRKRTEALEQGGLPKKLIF
CDK7/cyclinH/MAT1 (h), sequence (P51946 whole entry partner): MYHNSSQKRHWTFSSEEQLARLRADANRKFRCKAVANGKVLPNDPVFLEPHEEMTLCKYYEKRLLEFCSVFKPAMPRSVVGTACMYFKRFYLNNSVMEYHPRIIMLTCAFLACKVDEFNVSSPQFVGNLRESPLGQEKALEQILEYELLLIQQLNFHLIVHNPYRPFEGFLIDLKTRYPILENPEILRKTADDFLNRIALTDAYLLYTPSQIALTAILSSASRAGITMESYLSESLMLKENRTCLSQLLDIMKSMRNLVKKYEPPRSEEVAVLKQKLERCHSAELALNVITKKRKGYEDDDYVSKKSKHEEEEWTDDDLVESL
CDK7/cyclinH/MAT1 (h), sequence (P51948 whole entry partner): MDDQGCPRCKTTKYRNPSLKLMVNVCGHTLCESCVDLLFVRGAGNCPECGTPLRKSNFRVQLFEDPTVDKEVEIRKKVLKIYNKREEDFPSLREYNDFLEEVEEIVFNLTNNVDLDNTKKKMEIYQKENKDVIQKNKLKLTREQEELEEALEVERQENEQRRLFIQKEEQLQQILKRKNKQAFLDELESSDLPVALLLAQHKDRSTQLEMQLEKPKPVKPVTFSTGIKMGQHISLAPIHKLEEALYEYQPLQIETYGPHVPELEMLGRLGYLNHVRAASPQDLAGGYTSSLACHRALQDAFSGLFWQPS
Protocol: as §2, §3, §4
as §5, with “CDK7/cyclinH/MAT1” for “CDK1/cyclinB”, “500 μM peptide,” for “0.1 mg/ml histone H1,”

Aurora-A (h) = molecular target: T1, Aurora-A (h) (Homo sapiens, UniProt O14965); assay: Kinase profiling C3.1 Aurora-A human; assay type: biochemical; details: test concentration of 10^−6 M
T1 sequence (O14965 1-403): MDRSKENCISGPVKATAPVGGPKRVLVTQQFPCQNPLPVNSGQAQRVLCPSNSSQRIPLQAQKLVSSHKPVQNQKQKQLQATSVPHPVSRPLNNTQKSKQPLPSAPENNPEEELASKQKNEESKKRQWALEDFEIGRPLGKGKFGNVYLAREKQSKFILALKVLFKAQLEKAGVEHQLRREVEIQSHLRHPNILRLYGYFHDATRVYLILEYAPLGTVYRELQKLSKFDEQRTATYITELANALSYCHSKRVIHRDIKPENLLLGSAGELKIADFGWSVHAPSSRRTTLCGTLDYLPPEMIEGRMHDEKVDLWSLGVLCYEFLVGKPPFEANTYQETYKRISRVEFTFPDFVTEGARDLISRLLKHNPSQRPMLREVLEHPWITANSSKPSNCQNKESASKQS
Protocol: as §2, §3, §4
as §5, with “Aurora-A” for “CDK1/cyclinB”, “200 μM LRRASLG (Kemptide),” for “0.1 mg/ml histone H1,”, “50” for “75”

cSRC (h) = cSRC (h) (Homo sapiens, UniProt P12931); assay: Kinase profiling C3.9 cSRC human; assay type: biochemical; details: test concentration of 10^−6 M
cSRC (h), sequence (P12931 whole entry): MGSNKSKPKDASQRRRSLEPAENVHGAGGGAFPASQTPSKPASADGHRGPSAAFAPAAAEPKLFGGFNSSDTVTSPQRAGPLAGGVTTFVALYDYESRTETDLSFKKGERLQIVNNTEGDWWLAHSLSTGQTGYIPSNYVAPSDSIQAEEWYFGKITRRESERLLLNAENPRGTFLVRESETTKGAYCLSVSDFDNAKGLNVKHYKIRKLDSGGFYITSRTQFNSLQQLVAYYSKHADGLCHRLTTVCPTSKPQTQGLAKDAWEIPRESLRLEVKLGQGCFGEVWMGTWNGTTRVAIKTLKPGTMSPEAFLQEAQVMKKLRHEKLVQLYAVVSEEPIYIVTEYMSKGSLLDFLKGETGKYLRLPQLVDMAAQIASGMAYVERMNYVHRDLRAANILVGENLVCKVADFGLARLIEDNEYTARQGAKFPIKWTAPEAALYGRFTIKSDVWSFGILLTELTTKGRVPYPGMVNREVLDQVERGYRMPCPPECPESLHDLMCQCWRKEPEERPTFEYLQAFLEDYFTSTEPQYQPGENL
Protocol: as §2, §3, §4
In a final reaction volume of 25 μl, cSRC (h) (5-10 mU) is incubated with 8 mM MOPS pH 7.0, 0.2 mM EDTA, 250 μM KVEKIGEGTYGVVYK (Cdc2 peptide), 10 mM MgAcetate and [γ-^33P-ATP] (specific activity approx. 500 cpm/pmol, concentration as required). The reaction is initiated by the addition of the MgATP mix. After incubation for 40 minutes at room temperature, the reaction is stopped by the addition of 5 μl of a 3% phosphoric acid solution.
10 μl of the reaction is then spotted onto a P30 filtermat and washed three times for 5 minutes in 75 mM phosphoric acid and once in methanol prior to drying and scintillation counting.

Yes (h) = Yes (h) (Homo sapiens, UniProt P07947); assay: Kinase profiling C3.10 Yes human; assay type: biochemical; details: test concentration of 10^−6 M
Yes (h), sequence (P07947 whole entry): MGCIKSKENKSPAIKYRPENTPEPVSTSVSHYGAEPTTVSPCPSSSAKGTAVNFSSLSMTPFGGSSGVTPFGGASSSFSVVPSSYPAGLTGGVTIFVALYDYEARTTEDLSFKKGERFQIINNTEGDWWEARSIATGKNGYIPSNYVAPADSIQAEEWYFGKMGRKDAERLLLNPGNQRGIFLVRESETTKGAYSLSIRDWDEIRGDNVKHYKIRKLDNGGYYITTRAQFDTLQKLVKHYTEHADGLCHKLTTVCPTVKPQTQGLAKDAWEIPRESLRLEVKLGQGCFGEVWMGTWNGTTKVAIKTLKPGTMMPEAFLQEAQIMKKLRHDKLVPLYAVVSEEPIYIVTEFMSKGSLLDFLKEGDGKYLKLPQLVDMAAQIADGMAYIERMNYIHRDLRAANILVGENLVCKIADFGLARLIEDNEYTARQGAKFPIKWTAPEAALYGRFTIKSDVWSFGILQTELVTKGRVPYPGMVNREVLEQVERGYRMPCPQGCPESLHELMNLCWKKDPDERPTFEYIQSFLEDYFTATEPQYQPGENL
Protocol: as §2, §3, §4
as §5, with “Yes” for “CDK1/cyclinB”, “poly(Glu, Tyr) 4:1,” for “histone H1,”, “Filtermat A” for “P30 filtermat”

GSK-3α, sequence (P49840 whole entry, species assumed): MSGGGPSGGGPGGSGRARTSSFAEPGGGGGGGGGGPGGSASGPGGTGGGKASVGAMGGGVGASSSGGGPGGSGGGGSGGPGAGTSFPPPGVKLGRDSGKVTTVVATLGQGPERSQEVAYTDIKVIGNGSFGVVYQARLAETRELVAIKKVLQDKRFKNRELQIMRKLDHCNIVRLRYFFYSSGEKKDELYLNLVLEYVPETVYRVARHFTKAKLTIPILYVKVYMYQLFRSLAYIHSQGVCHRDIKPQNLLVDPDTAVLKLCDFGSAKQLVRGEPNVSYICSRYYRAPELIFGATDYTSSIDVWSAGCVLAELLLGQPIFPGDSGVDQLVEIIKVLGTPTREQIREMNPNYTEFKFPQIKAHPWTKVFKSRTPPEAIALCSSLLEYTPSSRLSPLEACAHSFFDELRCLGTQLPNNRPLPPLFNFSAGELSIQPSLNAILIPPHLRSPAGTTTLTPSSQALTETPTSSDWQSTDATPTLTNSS

Row | SMILES | IC50 (GSK-3α) [nM] | IC50 (GSK-3β) [nM] | C3.2 score (CDK1/cyclinB (h)) | C3.3 score (CDK2/cyclinA (h)) | C3.4 score (CDK2/cyclinE (h)) | C3.5 score (CDK3/cyclinE (h)) | C3.6 score (CDK5/p35 human) | C3.8 score (CDK7/cyclinH/MAT1 (h)) | C3.1 score (Aurora-A (h)) | C3.9 score (cSRC (h)) | C3.10 score (Yes (h)) | C2 Score (Chang cells)
1 | CN1CC(=O)NCCNc2cc(ccn2)-c2ncnc(n2)Nc2cccc(c2)C1 [Compound 4] | 10 to 100 | 10 to 100 |  |  |  |  |  |  |  |  |  | 4 (Score 4=>80% increase in D-glucose incorporation)
2 | CN1CC(=O)NCCCNc2cc(ccn2)-c2ncnc(n2)Nc2cccc(c2)C1 [Compound 5] | 10 to 100 | 10 to 100 |  |  |  |  |  |  |  |  |  | 4 (Score 4=>80% increase in D-glucose incorporation)
3 | O=C1CN2CCN(CC2)Cc2cccc(c2)Nc2ncnc(n2)-c2cccc(c2)CCCN1 [Compound 52] | < 10 |  | 4 (Score 4 = >80% inhibition) | 4 (Score 4 = >80% inhibition) | 4 (Score 4 = >80% inhibition) | 2 (Score 2 = 30-60% inhibition) | 3 (Score 3 = 60-80% inhibition) | 1 (Score 1 = 10-30% inhibition) |  |  |  | 4 (Score 4=>80% increase in D-glucose incorporation)
4 | CC(C)N1CC(=O)NCCCc2cc(ccn2)-c2ncnc(n2)Nc2cccc(c2)C1 [Compound 65] | < 10 |  |  | 2 (Score 2 = 30-60% inhibition) |  |  |  |  |  |  |  | 3 (Score 3=60-80% increase)
5 | CN1CC(=O)N(C)CCCc2cc(ccn2)-c2ncnc(n2)Nc2cccc(c2)C1 [Compound 67] | < 10 |  |  |  |  |  |  |  |  |  |  | 4 (Score 4=>80% increase in D-glucose incorporation)

Continued, in another order:

Row | IC50 (GSK-3α) [nM] | IC50 (GSK-3β) [nM] | C3.2 score (CDK1/cyclinB (h)) | C3.3 score (CDK2/cyclinA (h)) | C3.4 score (CDK2/cyclinE (h)) | C3.5 score (CDK3/cyclinE (h)) | C3.6 score (CDK5/p35 human) | C3.8 score (CDK7/cyclinH/MAT1 (h)) | C3.1 score (Aurora-A (h)) | C3.9 score (cSRC (h)) | C3.10 score (Yes (h)) | SMILES | C2 Score (Chang cells)
6 | < 10 |  |  |  |  |  |  |  |  |  |  | CN1CCCc2cc(ccc2F)-c2ncnc(n2)Nc2cccc(c2)CNC(=O)C1 [Compound 70] | 4 (Score 4=>80% increase in D-glucose incorporation)
7 | 10 to 100 |  |  | 2 (Score 2 = 30-60% inhibition) |  |  |  |  | 2 (Score 2 = 30-60% inhibition) | 2 (Score 2 = 30-60% inhibition) | 2 (Score 2 = 30-60% inhibition) | O=C1CNCc2cccc(c2)Nc2ncnc(n2)-c2cncc(c2)CCCN1 [Compound 83] | 4 (Score 4=>80% increase in D-glucose incorporation)
8 | < 10 |  | 3 (Score 3 = 60-80% inhibition) | 2 (Score 2 = 30-60% inhibition) | 3 (Score 3 = 60-80% inhibition) | 2 (Score 2 = 30-60% inhibition) | 2 (Score 2 = 30-60% inhibition) | 1 (Score 1 = 10-30% inhibition) |  |  |  | O=C1CN2CCN(CC2)Cc2cccc(c2)Nc2ncnc(n2)-c2cncc(c2)CCCN1 [Compound 84] | 3 (Score 3=60-80% increase)
